Reference: US20090018146A1, “Combination Therapy with Triterpenoid Compounds and Proteasome Inhibitors” (Research Development Corporation, priority 2005, published 2009)
Residues, ends and D or L forms follow the SMILES beside them. *: point of attachment. Cbz = O=C(OCc1ccccc1)*; CH2F = FC*

Assays:
S. pombe = assay: Effects of avicin G on the growth of S. pombe wild type and mutants; format: cell-based, Schizosaccharomyces pombe; details: for sensitivity to avicin G relative to wild-type: 26° C.
Method: FIGS. 10A and 10B: Effects of Avicin G on the Growth of S. pombe Mutants. Wild type, mts2-1 (mts2), mts3-1 (mts3), and nuc2-663 cells were spread on YEAU plates. Avicin G (25 jug) was then spotted onto the respective cell lawns and the plates were incubated at 26° C. for 5 days. The relative avicin G sensitivity of each strain, based on measurements of areas of avicin G-induced growth inhibition, was then determined, with wild-type cells being normalized to a value of 1 (FIG. 10A).
(§1) Standard yeast culture media and genetic methods were used (Alfa et al., 1993; Rose et al., 1990). S. pombe cultures were grown in either YEAU (0.5% yeast extract, 3% dextrose, 75 […]) or synthetic minimal medium (EMM) with appropriate supplements.

S. pombe cells = assay: Detection of ubiquitinated proteins in S. pombe; format: cell-based, Schizosaccharomyces pombe; details: wild type S. pombe, 20 μg/ml avicin G, after 90 minutes (1.5 hours), immunoblot
Method: as §1
S. pombe cultures were lysed with glass beads in PEM buffer (100 mM PIPES, 1 mM EGTA, 1 mM MgSO4, pH 6.9) containing 4 mM benzamide, 10 μM E64, 50 μM leupeptin, 1 μM pepstatin, 1 mM phenylmethanesulfonyl fluoride, and 2 μg/ml aprotinin essentially as described in (Yen et al., 2003). Equal amounts of protein were resolved by SDS-PAGE and subsequent immunoblotting using anti-ubiquitin mouse monoclonal antibody (Stressgen Biotechnologies).

20S activity = details: general statement on proteasome inhibitors; cited from earlier work
XIAP = assay: Western blot of XIAP protein in Jurkat cells; format: cell-based, human
Method: (§2) Jurkat T cells (2 μg/ml=1 μM), U-937 (4 μg/ml), MJ (5 μg/ml), and HH cells (2.5 μg/ml) were treated for 0-24 hours with the indicated concentrations of avicin D. PBLs from the patients or normal blood were treated with 5 μg/ml of avicin D for 24 hours.
(§3) At the end of treatments, cells were harvested, washed with sterile ice-cold PBS and cytoplasmic extracts (CE) were prepared by lysing the cells in CE buffer containing 10 mM Hepes-Cl pH 7.5, 10 mM KCl, 0.1 mM EDTA, 0.1 mM EGTA, 0.3% NP40, and a protease inhibitor cocktail (Sigma). After centrifugation and separating the supernatant (CE proteins), the pellet was resuspended in a buffer containing 20 mM Hepes-Cl, 400 mM NaCl, 1 mM EDTA, 1 mM EGTA, and protease inhibitor cocktail (Sigma). The nuclear protein extraction proceeded for 30 min. on ice followed by centrifugation at 14,000 rpm for 5 min at 4° C. The clear supernatant containing nuclear proteins (NE) was collected, glycerol (10%) was added, and proteins stored at −80° C. until use.
(§4) SDS-PAGE and immunoblot procedures were essentially performed as described (Sambrook, 1989). Briefly, cytoplasmic and nuclear proteins were resolved on SDS-PAGE, blotted on PVDF membranes (BioRad) and probed with various antibodies followed with anti-rabbit, anti-mouse antibody conjugated to horseradish peroxidase (HRP) from BioRad or HRP conjugated anti-goat antibody from Santa Cruz Biotechnology, corresponding to the primary antibody. Protein bands were detected using the ECL chemiluminescence kit from Amersham as per the manufacturer's protocol.
(§5) Quantitation of proteins (western) and transcripts (RT-PCR) was performed using the NIH 1.61 image software.

Hsp70 = assay: Western blot of Hsp70 protein in avicin D treated Jurkat cells; format: cell-based, human
Method: as §2, §3, §4, §5

Hsp90 = assay: Western blot of Hsp90 protein in avicin D treated Jurkat cells; format: cell-based, human; details: lactacystin 10 μM 30 minutes, then avicin D 4 hours
Method: as §2, §3
SDS-PAGE and immunoblot procedures were essentially performed as described (Sambrook, 1989). […] Protein bands were detected using the ECL chemiluminescence kit from Amersham as per the manufacturer's protocol.
as §5

his-ub-Hsp70 = assay: In vivo ubiquitination of Hsp70 in his-ub transfected Jurkat cells; format: cell-based, human; details: lactacystin 10 μM 30 minutes pretreatment, then avicin D 4 hours
Method: Jurkat T-cells were transfected with a plasmid pDG268 that expresses a fusion protein of histidine-tagged human ubiquitin and enhanced GFP. Transfection was performed using μm ax a Biosystems kit and their protocol. After 24 hours of transfection, cells were harvested, resuspended at a density of 10^6 cells/ml before treatment with lactacystin or avicin D.
Jurkat T cells transfected with the his-ub plasmid construct were treated with lactacystin (10 μM) or with avicin D (1 μM) for 4 hours. Cells were harvested and CE prepared as described above. […] The affinity purified histidine-tagged proteins were separated on SDS-PAGE and analyzed on western blots for ub-Hsp70 proteins.

Compound: C=C[C@](C)(O)CC/C=C(\C)C(=O)O[C@H]1[C@H](O)[C@@H](O)[C@H](O[C@@](C)(C=C)CC/C=C(\CO)C(=O)O[C@H]2C[C@]3(C(=O)O[C@@H]4O[C@H](CO)[C@@H](O)[C@H](O)[C@H]4O[C@@H]4O[C@@H](C)[C@H](O[C@@H]5O[C@@H](CO)[C@H](O)[C@H]5O)[C@@H](O[C@@H]5O[C@H](CO)[C@@H](O)[C@H](O)[C@H]5O)[C@H]4O)[C@H](O)C[C@]4(C)C(=CC[C@@H]5[C@@]6(C)CC[C@H](O[C@@H]7O[C@H](CO[C@@H]8O[C@H](C)[C@H](O)[C@H](O)[C@H]8O[C@@H]8OC[C@@H](O)[C@H](O)[C@H]8O)[C@@H](O)[C@H](O)[C@H]7NC(C)=O)C(C)(C)[C@@H]6CC[C@]54C)[C@@H]3CC2(C)C)O[C@@H]1C [avicin G]
- sensitivity to avicin G relative to wild-type (S. pombe; mts2-1 26S proteasome mutant, 25 μg spotted, 5 days): only slightly increased
- sensitivity to avicin G relative to wild-type (S. pombe; mts3-1 26S proteasome mutant, 25 μg spotted, 5 days): only slightly increased
- sensitivity to avicin G relative to wild-type (S. pombe; nuc2-663 APC mutant): markedly resistant
- growth on YEAU containing 16 μg/ml avicin G (S. pombe; nuc2-663 cells, 5 days at 26° C.): grew
- levels of ubiquitinated proteins (S. pombe cells): increase in the levels of ubiquitinated proteins

Compound: CC(C)C[C@H](NC(=O)[C@H](Cc1ccccc1)NC(=O)c1cnccn1)B(O)O [PS341]
- suppression of 20S activity (20S activity): suppress 20S activity completely

Compound: COC(=O)C[C@H](NC(=O)[C@H](C)NC(=O)[C@@H](NC(=O)OCc1ccccc1)C(C)C)C(=O)CF [zVAD-fmk, reference compound] (Cbz-Val-Ala-Asp(OMe)-CH2F)
- block of avicin-induced XIAP degradation (XIAP; zVAD-FMK 50 μM prior to avicin D 4 hours): −22%
- effect of caspase inhibition on the avicin-induced degradation of Hsp70 (Hsp70; zVAD-FMK 50 μM 30 minutes prior to avicin D 1 μM 4 hours): no significant effect

Compound: CC(=O)N[C@@H](CSC(=O)[C@]1([C@@H](O)C(C)C)NC(=O)[C@H](C)[C@@H]1O)C(=O)O [lactacystin, reference compound]
- effect of lactacystin on the avicin induced XIAP decrease (XIAP; lactacystin 30 minutes prior to avicin D 4 hours): blocked
- effect of lactacystin pretreatment on the avicin-induced decrease in Hsp70 protein (Hsp70; lactacystin 10 μM 30 minutes, then avicin D 4 hours): totally reversed
- effect of lactacystin pretreatment on the avicin-induced decrease in Hsp90 protein (Hsp90): totally reversed
- effect of lactacystin on the avicin-induced decrease of his-ub-Hsp70 (his-ub-Hsp70): sensitive to lactacystin
